According to patent publication US5089623A, “Certain imidate insecticides” (Imperial Chemical Industries Plc, priority 1990, dated 1992):

How the values were obtained:
Format in all cases: in vivo
[1] = system: Cabbage Looper [Trichoplusia ni (Hubner)]; assay: Cabbage looper test (CL); settings: second-instar larvae, 3-5 days, percent in solution
Method: Test compounds were diluted in a 50-50 acetone-water solution. Cotyledons of hyzini squash (Calabacita abobrinha), approximately 1×1.5 inches, were immersed in the test solutions for 2-3 seconds and placed on a wire screen to dry. The dried leaves were placed in petri dishes containing a moistened piece of filter paper and infested with 5 second-instar cabbage looper larvae. The dishes were placed in a high humidity chamber. Mortality of the larvae was recorded 3-5 days later. Test concentrations ranged from 0.1% downward. The LC-50 value is expressed below in Table 3 under the heading "CL" in terms of percent of the test compound in solution.

[2] = system: Housefly [Musca domestica]; assay: Housefly insecticidal test (HF); settings: per 25 female houseflies, 48 hours
[3] = system: Tobacco Budworm [Heliothis virescens (Fabricius)] eggs; assay: Tobacco budworm egg test (TBW-E); settings: percent in solution
From the text: Eggs: Paper towel patches of 2-day old eggs of the tobacco budworm were dipped in acetone solutions of the test compound and placed in petri dishes containing a portion of larval rearing medium. […] Test concentrations ranged from 0.1% downward.

Row | SMILES | LC50 CL [1] | LC50 HF [2] | LC50 TBW E [3]
1 | CSc1ccc(N=C(OCc2cccc(Oc3ccccc3)c2)C(Cl)Cl)cc1 [Compound 141] | < 0.1% | 35 µg | > 0.1%
2 | CC(C)c1ccc(N=C(OCc2cccc(Oc3ccc(F)cc3)c2)C(C)(C)C)cc1 [Compound 322] | 0.007% | > 100 µg | > 0.1%
3 | COC(C)C(=Nc1ccc(Cl)cc1)OCc1cccc(Oc2ccccc2)c1 (centres unmarked) [Compound 22] | 0.004% | 15 µg | 0.08%
4 | CC(C)c1ccc(N=C(OCc2cccc(Oc3ccccc3)c2)C(C)(C)C)cc1 [Compound 165] | 0.007% | > 100 µg | > 0.1%
5 | COc1ccc(N=C(OCc2cccc(Oc3ccccc3)c2)C(C)C)cc1OC [Compound 169] | 0.009% | 10 µg | > 0.1%
6 | CC(C)C(=Nc1cccc(C(F)(F)F)c1)OC(C)c1cccc(Oc2ccccc2)n1 (centres unmarked) [Compound 499] | 0.0024% | 63 µg | > 0.1%
7 | CC(C)(C)C(=Nc1cccc([N+](=O)[O-])c1)OCc1cccc(Oc2ccccc2)c1 [Compound 175] | 0.018% | > 100 µg | > 0.1%
8 | Cc1cc(N=C(OCc2cccc(Oc3ccccc3)c2)C(C)C)ccc1Br [Compound 127] | 0.01% | 58 µg | 0.04%
9 | CC(C)C(=Nc1cccc(C(F)(F)F)c1)OCc1ccc(OCc2ccc(F)cc2)cc1 [Compound 488] | 0.025% | > 100 µg | > 0.1%
10 | CC(C)(C)C(=Nc1ccc(Cl)c([N+](=O)[O-])c1)OCc1cccc(Oc2ccccc2)c1 [Compound 105] | 0.018% | > 100 µg | > 0.1%
11 | CC(C)C(=Nc1cccc(C(F)(F)F)c1)OCc1cccc(Oc2cccc(F)c2)c1 [Compound 192] | 0.0012% | 25 µg | 0.07%
12 | CC(C)C(=Nc1ccc(F)c(F)c1)OCc1coc(Cc2ccccc2)c1 [Compound 485] | > 0.1% | 24 µg | > 0.1%
13 | CC(C)C(=Nc1ccc(OC(F)(F)F)c(Cl)c1)OCc1cc(F)cc(Oc2ccc(F)cc2)c1 [Compound 328] | 0.03% | > 100 µg | > 0.1%
14 | CC(C)C(=Nc1c(Br)cc(F)cc1Br)OCc1cccc(Oc2ccccc2)c1 [Compound 130] | 0.005% | > 100 µg | > 0.1%
15 | CC(C)C(=Nc1ccc(F)cc1)OCc1cccc(Oc2cccc(Cl)c2)c1 [Compound 205] | 0.004% | 50 µg | > 0.1%
16 | CC(C)C(=Nc1cc(F)c(F)cc1F)OCc1cccc(Oc2ccccc2)c1 [Compound 58] | 0.002% | 16 µg | 0.06%
17 | Cc1cccc(N=C(OCc2cccc(Oc3ccccc3)c2)C(C)C)c1C [Compound 249] | 0.0025% | 36 µg | 0.0365%
18 | CC(C)C(=Nc1ccc2c(c1)OC(C)(C)O2)OCc1cccc(Oc2ccc(Cl)cc2)c1 [Compound 241] | 0.0004% | > 100 µg | > 0.1%
19 | Cc1cc(Cl)ccc1N=C(OCc1cccc(Oc2ccccc2)c1)C(C)(C)C [Compound 109] | 0.002% | > 100 µg | > 0.1%
20 | CC(C)C(=Nc1ccc(Cl)cc1)OCc1cccc(Oc2ccc(Br)cc2)c1 [Compound 237] | 0.0006% | 50 µg | 0.075%

Row | SMILES | LC50 CL [1] | LC50 HF [2] | LC50 TBW E [3]
21 | CC(C)C(=Nc1ccc2c(c1)OCO2)OCc1cccc(Oc2ccccc2)n1 [Compound 467] | 0.003% | 6 µg | 0.04%
22 | CC(C)C(=Nc1ccc(F)c(Cl)c1)OCc1cccc(OCc2ccccc2)c1 [Compound 472] | 0.0025% | > 100 µg | > 0.1%
23 | CC(C)C(=Nc1ccc(Cl)cc1Cl)OCc1cccc(Oc2ccc(F)cc2)c1 [Compound 312] | 0.006% | > 100 µg | > 0.1%
24 | CC(C)C(=Nc1ccc(C#N)c(F)c1)OCc1cccc(Oc2ccccc2)c1 [Compound 233] | 0.0017% | 10 µg | 0.09%
25 | CC(C)(C)C(=Nc1ccc(Br)c(Cl)c1)OCc1cccc(Oc2ccccc2)c1 [Compound 106] | 0.014% | > 100 µg | > 0.1%
26 | CC(C)C(=Nc1c(F)c(F)c(F)c(F)c1F)OCc1cccc(Oc2ccc(F)cc2F)c1 [Compound 232] | 0.004% | > 100 µg | > 0.1%
27 | CC(C)C(=Nc1ccc(F)c(Cl)c1)OCc1cccc(Oc2ccc(C(F)(F)F)cc2)c1 [Compound 247] | 0.009% | > 100 µg | > 0.1%
28 | COc1ccc(Oc2cccc(COC(=Nc3ccc(F)cc3)C(C)C)c2)cc1 [Compound 220] | 0.007% | 85 µg | > 0.1%
29 | Fc1c(F)c(F)c(COC(=Nc2cccc(Cl)c2Cl)C(Cl)Cl)c(F)c1F [Compound 454] | 0.03% | > 100 µg | > 0.1%
30 | CC(C)C(=Nc1ccc(C2CCCCC2)cc1)OCc1cccc(Oc2ccc(F)cc2)c1 [Compound 280] | 0.024% | > 100 µg | > 0.1%
31 | CC(C)C(=Nc1ccc(F)c(Cl)c1)OCc1coc(Cc2ccccc2)c1 [Compound 474] | 0.0012% | 8 µg | > 0.1%
32 | CC(C)C(=Nc1ccc(F)c(Cl)c1)OCc1ccc(Cl)c(Oc2ccc(F)cc2)c1 [Compound 448] | 0.003% | 16 µg | 0.03%
33 | CCOc1ccc(N=C(OCc2cccc(Oc3ccccc3)c2)C(C)(C)C)cc1 [Compound 164] | 0.005% | > 100 µg | > 0.1%
34 | CC(C)C(=Nc1cc(C(F)(F)F)ccc1F)OCc1cccc(Oc2ccccc2)c1 [Compound 84] | 0.006% | 93 µg | 0.1%
35 | CC(C)C(=Nc1cccc(F)c1)OCc1cccc(Oc2ccc(F)cc2)c1 [Compound 200] | 0.00075% | 7.5 µg | 0.1%
36 | CC(C)C(=Nc1ccc(F)c(Cl)c1)OCc1cccc(Oc2ccc(I)cc2)c1 [Compound 447] | 0.0009% | 33 µg | > 0.1%
37 | CC(C)C(=Nc1cccc(Oc2ccccn2)c1)OCc1cccc(Oc2ccccc2)c1 [Compound 114] | < 0.1% | 92 µg | –
38 | CC(C)C(=Nc1ccc(F)c(Cl)c1)OC(F)c1cccc(Oc2ccc(F)cc2)c1 (centres unmarked) [Compound 502] | – | 80 µg | –
39 | FC(F)(F)c1ccc(Oc2ccc(COC(=Nc3ccc(Cl)cc3)C(Cl)Cl)cc2)nc1 [Compound 453] | 0.1% | > 100 µg | –
